# Measurements taken from PubChem BioAssay AID1963828 (Molecular Pharmacology Branch, DTP, NCI, 2024).
# “And” between values parts separate entries of the source, which are not always exact repeats. Identical values can stand only once.
# System: 991263-137-R1-J2-PDC complex spheroid viability
# Test: Anticancer human tumor 991263-137-R1-J2-PDC patient-derived colon adenocarcinoma cell line growth inhibition [POLQ]
# Conditions: for viability, T/C: stronger effect = lower value
# Description: Multicellular complex tumor spheroid response to Polymerase (POL) inhibitors (novobiocin, ART-558, RP6685) in combination with a variety of drugs and investigational agents in selected tumor cell lines
# The POL inhibitors (novobiocin, ART-558, and RP6685) were evaluated both individually and in combination with standard of care and investigational anticancer small molecules within a complex spheroid model of solid tumors. . Complex spheroids include a stromal component modeled by human endothelial cells (HUVEC) and fibroblasts modeled by human mesenchymal stem cells (MSCs). The concentration ranges selected for each drug and investigational agent were based upon clinically achievable concentrations if the clinical Cmax of the agent was known.
# Compounds. The drugs and investigational agents: novobiocin (NSC847541), ART-558 (NSC835418), RP-6685 (NSC848927), peposertib (NSC802822), ceralasertib (NSC780249), elimusertib (NSC800525), camonsertib (NSC841442), AZD-1390 (NSC803789), olaparib (NSC753686), talazoparib (NSC767125), rucaparib (NSC756644), sotorasib (NSC818433), MRTX-1133 (NSC836407), SN-38 (NSC673596), topotecan (NSC609699), epotoside (NSC141540), doxorubicin (NSC123127), gemcitabine (NSC613327), 5-fluorouracil (NSC19893), paclitaxel (NSC125973), vemurafenib (NSC761431), MSA-2 (NSC828583), SN-011 (NSC837082), adavosertib (NSC754352), prexasertib (NSC758257), carboplatin (NSC241240) and oxaliplatin (NSC266046), were obtained from the National Cancer Institute (NCI) Developmental Therapeutics Program Chemical Repository (21). The FDA-approved anticancer drug set is available from the Developmental Therapeutics Program at https://dtp.cancer.gov/organization/dscb/obtaining/. […] The stock solutions were prepared in dimethyl sulfoxide (DMSO, Sigma-Aldrich, St. Louis, MO, cat. D2650), except for the platinum compounds which were prepared in saline (Quality Biological, Gaithersburg, MD, cat. 114-055-101), at 800-fold the tested concentration and stored at -70 degrees C prior to their use. All drugs and investigational agents were tested over a range starting from a high concentration at or near the clinical Cmax and decreasing in half-log increments. If the clinical Cmax for an agent had not been determined, the highest concentration tested was 10 microM, except for SN-38, which was tested at a high concentration of 1 microM.
# Cell Culture. All cells were maintained in an incubator at 37 degrees C and 5% CO2 with 95% humidity. The PDC lines were cultured according to standard operating procedures established by the NCI PDMR (https://pdmr.cancer.gov). Table 3 of the manuscript, lists the cell lines along with the number of the three cell types plated to form the mct-spheroids and media for tumor cell growth. After thawing, all PDC lines, except 997537-175-T-J1-PDC and 415267-285-R-J2-PDC, were cultured in Matrigel-coated flasks prepared with a working solution of 1X Ham's F-12 nutrient mix, without supplementation (Thermo Fisher Scientific, cat. 11765054), 100 U/mL penicillin-streptomycin (Thermo Fisher Scientific, cat. 15140122), and 2.5% Matrigel (Corning Inc., Corning, NY, cat. 354248) for the first three passages. The two PDC lines 997537-175-T-J1-PDC and 415267-285-R-J2-PDC were cultured on uncoated flasks. The 857933-349-R-J2-PDC line was cultured in 6C/Colon 1B media containing advanced DMEM/F-12 (Thermo Fisher Scientific, cat. 12634028), 10 mM HEPES (Thermo Fisher Scientific, cat. 15630080), 1X GlutaMAX supplement (Thermo Fisher Scientific, cat. 35050061), 0.1 mg/mL primocin (InvivoGen, San Diego, CA, cat. ant-pm-2), 10% defined fetal bovine serum, heat inactivated (HyClone Laboratories Inc., Logan, UT, cat. SH30070.03HI), 50% L-WRN conditioned media (ATCC, cat. CRL-3276), 1.25 mM N-Acetyl-L-cysteine (Sigma-Aldrich, cat. A9165), 10 mM nicotinamide (Sigma-Aldrich, cat. N0636), 1X B-27 supplement (Thermo Fisher Scientific, cat. 17504044), 1X N-2 supplement (Thermo Fisher Scientific, cat. […]
# [1] = compound alone, run of 01/08/2024
# [2] = compound alone, run of 01/19/2024
# 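Also: spheroids exposed to compounds for 7 days before readout.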
# 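For viability, T/C in this document: 100% = DMSO vehicle control viability.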
Structure (SMILES),"viability, T/C (compound 0.0316 µM)","viability, T/C (compound 0.1 µM)","viability, T/C (compound 0.316 µM)","viability, T/C (compound 1 µM)","viability, T/C (compound 10 µM)",IC50 (curve of compound),IC50 [1],"viability, T/C (compound 3.16 µM)","viability, T/C (compound 0.00316 µM)","viability, T/C (compound 0.01 µM)",IC50 [2],"viability, T/C (compound 0.000316 µM)","viability, T/C (compound 0.001 µM)"
CNCc1ccc(-c2[nH]c3cc(F)cc4c3c2CCNC4=O)cc1,98% and 102% and 119%,109% and 91.5% and 97.6%,97% and 102% and 112%,110% and 101% and 96%,111% and 110% and 104%,> 10 µM,,,,,,,
COC1C(OC(N)=O)C(O)C(Oc2ccc3c(O)c(NC(=O)c4ccc(O)c(CC=C(C)C)c4)c(=O)oc3c2C)OC1(C)C (stereo not given),102% [middle of 12 runs],,103% [middle of 12 runs],,,,> 10 µM,,,,,,
COc1cc(C2c3cc4c(cc3C(OC3OC5COC(C)OC5C(O)C3O)C3COC(=O)C23)OCO4)cc(OC)c1O (stereo not given),105% and 96.4% and 99.6%,86.2% and 94.5% and 92.4%,,97.8% and 95.9% and 92.5%,69.9% and 77% and 77.1%,> 10 µM,,77.9% and 88.6% and 71.9%,,,,,
COc1cc2cc(C(=O)CCC(=O)O)sc2cc1OC,104% and 107% and 91.3%,85% and 96.5% and 104%,117% and 104% and 114%,,74.1% and 83.3% and 78.4%,> 10 µM,,,,,,,
COc1ccc([C@@H](O)c2cc(-c3ncnc4cc(N5CCOCC5)ccc34)c(F)cc2Cl)nn1,105% and 102% and 82.6%,84.6% and 103% and 79.1%,98.5% and 95.2% and 91.9%,87% and 97.5% and 103%,28.5% and 31.4% and 28.6%,5.36 µM and 5.45 µM and 4.48 µM,,68% and 66.7% and 59.3%,,,,,
COc1cccc(OCCCN)c1-c1cc(Nc2cnc(C#N)cn2)n[nH]1,101% and 94.9% and 94.6%,,43.2% and 53.1% and 61.2%,40.1% and 42.8% and 46.3%,,0.0909 µM and 0.464 µM and 0.75 µM,,,89.6% and 99.7% and 88.6%,98.1% and 107% and 85.7%,,,
COc1cccc2c1C(=O)c1c(O)c3c(c(O)c1C2=O)CC(O)(C(=O)CO)CC3OC1CC(N)C(O)C(C)O1 (stereo not given),103% and 95.2% and 99.9%,106% and 91% and 88.5%,77% and 85.2% (2×),51% and 54.2% and 48.5%,41.7% and 36.5% and 38.3%,0.903 µM and 1.42 µM and 0.972 µM,,29.6% and 40.6% and 40.8%,,,,,
Cc1cccc(N(C)C(=O)C2C(O)CCN2c2nc(C)cc(C(F)(F)F)c2C#N)c1 (stereo not given),101% [middle of 13 runs],99.2% [middle of 13 runs],,,100% [middle of 13 runs],,> 10 µM,101% [middle of 13 runs],,,> 10 µM,,
Cn1ncnc1[C@H]1c2n[nH]c(=O)c3cc(F)cc(c23)N[C@@H]1c1ccc(F)cc1,89.6% and 101% and 84.5%,106% and 112% and 105%,,,,> 0.1 µM,,,102% and 104% and 109%,109% and 105% and 119%,,102% and 97.3% and 87.3%,93.6% and 88.1% and 88.5%
Nc1ccc(C#CCN(C(=O)Cc2ncc(C(F)(F)F)cc2C(F)(F)F)c2ccc(F)cc2)nn1,100% [middle of 13 runs],101% [middle of 13 runs],99.3% [middle of 13 runs],102% [middle of 13 runs],101% [middle of 13 runs],,,103% [middle of 13 runs],,,> 10 µM,,
Nc1ccn(C2OC(CO)C(O)C2(F)F)c(=O)n1 (stereo not given),90.8% and 85.4% and 75.5%,53.7% and 74.1% and 58.9%,69% and 61.1% and 58.6%,58.6% and 60.4% and 47.9%,40.8% and 47% and 37.3%,,,37.6% and 56.2% and 37.2%,,,,,
O=C(Nc1ccc(O)c(NS(=O)(=O)c2ccc(F)cc2)c1)c1ccc(-c2ccccc2)cc1,101% (2×) and 109%,98.5% and 91.8% and 94.6%,113% and 109% and 100%,97.6% and 98.6% and 105%,101% and 97.1% and 79.9%,> 10 µM,,96.9% and 88.3% and 105%,,,,,
O=C(c1cc(Cc2n[nH]c(=O)c3ccccc23)ccc1F)N1CCN(C(=O)C2CC2)CC1,106% and 90.8% and 97%,97.2% and 97.7% and 99.1%,84.8% and 95.7% and 101%,108% and 85.4% and 103%,,> 10 µM,,105% and 92.7% and 98.1%,,,,,
O=c1[nH]cc(F)c(=O)[nH]1,106% and 114% and 96.5%,90.3% and 99.3% and 92.5%,76.8% and 93.5% and 94.8%,94% and 95.8% and 91%,91.7% and 85.1% and 80.9%,> 10 µM,,,,,,,
